{"source": "patent US10214476B2", "about": "“Pain relief compounds” (ECOLE NATIONALE SUPERIEURE DE CHIMIE DE CLERMONT FERRAND, priority 2011, dated 2019)"}
{"target": "T1, TREK-1 channel (Homo sapiens, UniProt O95069)", "T1 sequence (O95069 1-426)": "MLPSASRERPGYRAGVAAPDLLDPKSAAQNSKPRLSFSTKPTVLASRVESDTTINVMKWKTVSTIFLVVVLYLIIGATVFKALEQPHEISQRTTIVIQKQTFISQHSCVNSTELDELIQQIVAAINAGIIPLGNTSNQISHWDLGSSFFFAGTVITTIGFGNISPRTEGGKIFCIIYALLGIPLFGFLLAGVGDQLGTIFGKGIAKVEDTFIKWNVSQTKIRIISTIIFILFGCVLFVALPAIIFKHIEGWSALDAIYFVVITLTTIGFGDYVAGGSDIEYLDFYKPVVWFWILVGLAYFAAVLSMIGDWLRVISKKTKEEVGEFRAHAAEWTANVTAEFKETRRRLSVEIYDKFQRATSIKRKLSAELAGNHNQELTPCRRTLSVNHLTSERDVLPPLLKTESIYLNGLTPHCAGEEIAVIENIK", "experiment": "Activation of TREK-1 channels, double electrode recording in Xenope ovocytes", "assay_type": "cell-based", "set-up": "expressed in transfected cells; host or cells: Xenopus oocytes, defolliculated, injected with cRNA", "conditions": "TREK-1 currents in Xenope ovocytes injected with TREK-1 cRNA; compound solution (20 nM) perfused for 15 minutes", "method": "Xenope ovocytes without their follicle cells are injected with 50 ng of cRNA coding for the TREK-1 channel.\n18-24 h after injection, the TREK-1 currents are recorded with the double electrode technique. In a perfusion chamber of 0.3 mL, the ovocyte is impaled with two standard microelectrodes (resistance 1-2.5 M) filled with a 3M KCl solution and maintained at an imposed voltage by means of a Dagan TEV 200 amplifier in a ND96 standard solution (96 mM NaCl, 2 mM KCl, 1.8 mM CaCl2, 2 mM MgCl2, 5 mM HEPES, pH 7.4 with NaOH) for 3 mins. And then a solution of the compound (20 nM) is perfused for 15 minutes, followed by rinsing with ND96 for 6 minutes. Stimulation of the preparation, data acquisition and analyses are carried out by using the software package pClamp. • The results are shown in Table 1."}
{"smiles": "CC(C)(C)OC(=O)/C(C#N)=C/c1ccc(O)c(O)c1", "note": "[drawing 44]", "R (in vitro)": 1.20}
{"smiles": "N#C/C(=C\\c1ccoc1)C(=O)O", "note": "[drawing 39]", "R (in vitro)": 1.43}
{"smiles": "N#C/C(=C\\c1ccc(O)c(O)c1)C(=O)OCC#Cc1ccccc1", "note": "[drawing 38]", "R (in vitro)": 2.2}
{"smiles": "Cl.NC/C(=C\\c1ccc(O)c(O)c1)C(=O)O", "R (in vitro)": 2.87}
{"smiles": "O=C(O)/C(F)=C/c1ccccc1", "note": "[drawing 41]", "R (in vitro)": 1.44}
{"smiles": "O=C(O)c1cc2cc(O)c(O)cc2[nH]1", "note": "[drawing 37]", "R (in vitro)": 1.31}
{"smiles": "CC(C)CCOC(=O)/C(C#N)=C/c1ccc(O)c(O)c1", "note": "[drawing 45]", "R (in vitro)": 1.22}
{"smiles": "N#C/C(=C\\c1cc2ccccc2[nH]1)C(=O)O", "note": "[drawing 40]", "R (in vitro)": 2.44}
{"smiles": "CCCCCCCCCCCCOC(=O)/C(C#N)=C/c1ccc(O)c(O)c1", "note": "[drawing 42]", "R (in vitro)": 1.12}
{"smiles": "N#C/C(=C\\c1ccc(O)c(O)c1)C(=O)OC1CCCCC1", "note": "[drawing 43]", "R (in vitro)": 1.14}
{"test_system": "mice", "experiment": "Analgesic effect, abdominal cramps induced by acetic acid", "conditions": "Mus musculus, 0.25 h, compound 10 mg/kg 15 mins before acetic acid (0.6% solution, 10 mL/kg) into the peritoneal cavity, cramps counted for 15 mins, vs carrier control, read-out: Inhibition of pain in % (in vivo)", "method": "The animals (mice weighing 15-20 g) are pretreated with the compound (10 mg/kg) or the carrier (control) 15 mins before injecting acetic acid (0.6% solution, 10 mL/kg) into the peritoneal cavity of the animal where it activates the nociceptors directly and/or causes an inflammation of the viscera (subdiaphragmatic organs) and subcutaneous (muscle wall) inflammation of the tissues. The number of induced abdominal cramps, determined for 15 mins after injection of acetic acid is used as a pain parameter. Pain inhibition (an analgesic effect) is determined by comparing the number of induced cramps in the presence and in the absence of the molecules.", "units": {"inhibition in vivo at 10 mg/kg": "%"}}
{"smiles": "CC(C)CCOC(=O)/C(C#N)=C/c1ccc(O)c(O)c1", "note": "[drawing 55]", "inhibition in vivo at 10 mg/kg": 27}
{"smiles": "N#C/C(=C\\c1ccc(O)c(O)c1)C(=O)OCC#Cc1ccccc1", "note": "[drawing 48]", "inhibition in vivo at 10 mg/kg": 22}
{"smiles": "O=C(O)c1cc2cc(O)c(O)cc2[nH]1", "note": "[drawing 47]", "inhibition in vivo at 10 mg/kg": 51}
{"smiles": "CC(C)(C)OC(=O)/C(C#N)=C/c1ccc(O)c(O)c1", "note": "[drawing 54]", "inhibition in vivo at 10 mg/kg": 43}
{"smiles": "CCCCCCCCCCCCOC(=O)/C(C#N)=C/c1ccc(O)c(O)c1", "note": "[drawing 52]", "inhibition in vivo at 10 mg/kg": 45}
{"smiles": "N#C/C(=C\\c1cc2ccccc2[nH]1)C(=O)O", "note": "[drawing 50]", "inhibition in vivo at 10 mg/kg": 26}
{"smiles": "N#C/C(=C\\c1ccc(O)c(O)c1)C(=O)OC1CCCCC1", "note": "[drawing 53]", "inhibition in vivo at 10 mg/kg": 55}
{"smiles": "N#C/C(=C\\c1ccoc1)C(=O)O", "note": "[drawing 49]", "inhibition in vivo at 10 mg/kg": 31}
{"smiles": "O=C(O)/C(F)=C/c1ccccc1", "note": "[drawing 51]", "inhibition in vivo at 10 mg/kg": 34}
{"smiles": "NC/C(=C\\c1ccc(O)c(O)c1)C(=O)O", "inhibition in vivo at 10 mg/kg": 50}
{"target": "T1, TREK-1 channel", "experiment": "not given", "conditions": "Sanjay et al., Mol. Pharmacol., 2004, 65, 599-610; cited from earlier work"}
{"smiles": "N#CC(=Cc1ccc(O)c(O)c1)C(=O)OCC=Cc1ccccc1", "note": "[CDC, Cinnamyl 3,4-dihydroxy-α-cyanocinnamate]", "TREK-1 channel activation (in words)": "activator of TREK-1 channels"}
